Here are results for 11 compounds from ChEMBL document CHEMBL3763023, “Amido/ureidosubstituted benzenesulfonamides-isatin conjugates as low nanomolar/subnanomolar inhibitors of the tumor-associated carbonic anhydrase isoform XII” (Eur J Med Chem, 2016).

Each structure is given as a SMILES string.

For the first experiment, the target named is Carbonic anhydrase 2 (Homo sapiens, UniProt P00918). Description: Inhibition of recombinant human carbonic anhydrase 2 incubated for 15 mins prior to testing by stopped flow carbon dioxide hydrase assay.
Consider `NS(=O)(=O)c1ccc(NC(=O)Nc2ccc(/N=C3\C(=O)Nc4ccc(Br)cc43)cc2)cc1`, for which the Ki was over 10000 nM.

The target in the next experiment is Carbonic anhydrase 9 (Homo sapiens, UniProt Q16790). In words: Inhibition of recombinant human carbonic anhydrase 9 incubated for 15 mins prior to testing by stopped flow carbon dioxide hydrase assay.
Take `NS(=O)(=O)c1ccc(NC(=O)Nc2ccc(/N=C3\C(=O)Nc4ccc(Cl)cc43)cc2)cc1`: the inhibition constant Ki was 239 nM.
Still for that read-out and setting: with `NS(=O)(=O)c1ccc(NC(=O)Nc2ccc(/N=C3\C(=O)Nc4ccccc43)cc2)cc1` the figure was 217 nM; with `NS(=O)(=O)c1ccc(NC(=O)Nc2ccc(/N=C3\C(=O)Nc4ccc(F)cc43)cc2)cc1`, 235 nM; with `NS(=O)(=O)c1ccc(NC(=O)Nc2ccc(/N=C3\C(=O)Nc4ccc([N+](=O)[O-])cc43)cc2)cc1`, 14.8 nM.
On the same count and under the same terms, under `Cc1ccc2c(c1)/C(=N/c1ccc(NC(=O)Nc3ccc(S(N)(=O)=O)cc3)cc1)C(=O)N2` stands 16.7 nM.
The same measure, in the same setting: under `NS(=O)(=O)c1ccc(NC(=O)c2ccc(/N=C3\C(=O)Nc4ccc(Cl)cc43)cc2)cc1` stands 194 nM; under `NS(=O)(=O)c1ccc(NC(=O)c2ccc(/N=C3\C(=O)Nc4ccc(Br)cc43)cc2)cc1`, 208 nM.
`NS(=O)(=O)c1ccc(NC(=O)Nc2ccc(/N=C3\C(=O)Nc4ccc(Br)cc43)cc2)cc1`: the Ki came out at 192 nM.
Same read-out and setting: with `Nc1ccc(C(=O)Nc2ccc(S(N)(=O)=O)cc2)cc1` the figure was 159 nM; with `NS(=O)(=O)c1ccc(/N=C2\C(=O)Nc3ccc([N+](=O)[O-])cc32)cc1`, 5 nM.
On the same count and under the same terms, under `NS(=O)(=O)c1ccc(NC(=O)c2ccc(/N=C3\C(=O)Nc4ccccc43)cc2)cc1` stands 240 nM.
